In the assay the test system is nude mice, HT29 intrarenal xenograft, tumor weight T/C. The assay can be described thus: NCI In Vivo Anticancer Drug Screen. Data for tumor model HT29;CX-1 Human Adenocarcinoma (MER+) (intrarenal inoculation) in NU/NU Swiss (nude) mice. The following applies: endpoint: mean tumor weight change, higher = larger tumour. A digest of the protocol:
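Mice with transplanted tumors are dosed with compound while controls get vehicle only. Survival or tumor burden is then assessed per group, and the treated value is expressed relative to control.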

[1] abbreviates: dose: 150.0 mg/kg/injection, schedule: Q04DX004 (sc), vehicle: saline with Tween-80.
[2] abbreviates: dose: 300.0 mg/kg/injection, schedule: Q04DX004 (sc), vehicle: saline with Tween-80.
Where [3] appears, read: dose: 40.0 mg/kg/injection, schedule: Q04DX004 (sc), vehicle: water.

SMILES strings stand for the structures. Where “and” joins values, the source holds several entries; their conditions need not be identical. Equal values may be shown once. Results filed as inconclusive are left out.

Regarding `COc1cccc2c1C(=O)c1c(O)c3c(c(O)c1C2=O)C[C@@](O)(C(=O)CO)C[C@@H]3OC1CC(N)C(O)C(C)O1` (stereo not given in full), the T/C is, setting by setting: (dose: 0.25 mg/kg/injection, schedule: Q01DX010 (ip), vehicle: water) -27 % of control; (dose: 0.5 mg/kg/injection, schedule: Q01DX010 (sc), vehicle: saline) 62 % of control; (dose: 1.0 mg/kg/injection, schedule: Q01DX010 (sc), vehicle: saline) 30 % of control and 32 % of control; (dose: 1.5 mg/kg/injection, schedule: Q01DX010 (sc), vehicle: saline) 96 % of control; (dose: 2.0 mg/kg/injection, schedule: Q01DX010 (ip), vehicle: water) -20 % of control; (dose: 2.0 mg/kg/injection, schedule: Q01DX010 (sc), vehicle: saline) 15 % of control and 29 % of control. For the same compound, the T/C reads like this: (dose: 3.0 mg/kg/injection, schedule: Q01DX010 (sc), vehicle: saline) 109 % of control; (dose: 4.0 mg/kg/injection, schedule: Q01DX010 (sc), vehicle: saline) 4 % of control and 27 % of control; (dose: 6.0 mg/kg/injection, schedule: Q01DX010 (sc), vehicle: saline) 102 % of control; (dose: 7.5 mg/kg/injection, schedule: Q04DX004 (sc), vehicle: saline) 62 % of control.

For the compound `NC1(C(=O)O)CCCC1`, the T/C runs as follows: (dose: 12.5 mg/kg/injection, schedule: Q01DX010 (sc), vehicle: saline) 49 % of control; (dose: 200.0 mg/kg/injection, schedule: Q01DX010 (sc), vehicle: saline) -20 % of control.

Take `COC(=O)[C@@]12OC[C@]34[C@H]([C@@H](O)[C@@H]1O)[C@@]1(C)CC(=O)C(O)=C(C)[C@@H]1C[C@H]3OC(=O)[C@H](OC(=O)/C=C(\C)C(C)C)[C@@H]24`: the T/C is 67 % of control (dose: 0.25 mg/kg/injection, schedule: Q04DX004 (sc), vehicle: saline + alcohol); 83 % of control (dose: 0.5 mg/kg/injection, schedule: Q04DX004 (sc), vehicle: saline with Tween-80); 49 % of control and 62 % of control (dose: 1.0 mg/kg/injection, schedule: Q04DX004 (sc), vehicle: saline + alcohol); 89 % of control (dose: 1.0 mg/kg/injection, schedule: Q04DX004 (sc), vehicle: saline with Tween-80); 53 % of control and 65 % of control (dose: 2.0 mg/kg/injection, schedule: Q04DX004 (sc), vehicle: saline + alcohol); 72 % of control (dose: 4.0 mg/kg/injection, schedule: Q04DX004 (sc), vehicle: saline + alcohol).

Take `Cc1cc(NCCCCCCNc2cc(C)nc3cc(N(C)C)ccc23)c2ccc(N(C)C)cc2n1`: the T/C is, setting by setting: (dose: 37.5 mg/kg/injection, schedule: Q04DX004 (sc), vehicle: distilled water + Tween-80 + alcohol) 112 % of control; (dose: 75.0 mg/kg/injection, schedule: Q04DX004 (sc), vehicle: distilled water + Tween-80 + alcohol) 42 % of control.

On to `O=C(O)CC(=O)O.[NH-]CC[NH-].[Pt+2]`, for which the T/C (dose: 25.0 mg/kg/injection, schedule: Q01DX010 (sc), vehicle: dextrose) is 29 % of control and the T/C (dose: 50.0 mg/kg/injection, schedule: Q01DX010 (sc), vehicle: dextrose) was 41 % of control.

Take `N=C(N)SCc1cccc2c(=O)cc(-c3ccccc3)oc12`: the T/C by setting is: (dose: 150.0 mg/kg/injection, schedule: Q04DX004 (sc), vehicle: suspension in saline) 110 % of control; (dose: 300.0 mg/kg/injection, schedule: Q04DX004 (sc), vehicle: suspension in saline) 113 % of control; (dose: 600.0 mg/kg/injection, schedule: Q04DX004 (sc), vehicle: suspension in saline) 106 % of control; (dose: 1200.0 mg/kg/injection, schedule: Q04DX004 (sc), vehicle: suspension in saline) 69 % of control.

As to `CN(C)C(=O)c1cccc(COc2ccc(N3C(N)=NC(N)=NC3(C)C)cc2Cl)c1`, where the note is “dose: 12.5 mg/kg/injection, schedule: Q01DX010 (sc), vehicle: water”, the T/C was 82 % of control.

On to `C[CH2][Ge]([CH2]C)[CH2]C.C[CH2][Ge]([CH2]C)[CH2]C.C[CH2][Ge]([CH2]C)[O][Ge]([CH2]C)[CH2]C`, for which, under setting [1], the T/C is 112 % of control.

On to `CC1=C(C)C(=O)O[C@@H]([C@](C)(O)[C@]2(O)CC[C@@]3(O)[C@@H]4C[C@H]5O[C@]56CC=CC(=O)[C@]6(C)[C@H]4CC[C@]23C)C1`, for which the T/C (dose: 450.0 mg/kg/injection, schedule: Q04DX004 (sc), vehicle: suspension in saline) was 86 % of control; the T/C (dose: 900.0 mg/kg/injection, schedule: Q04DX004 (sc), vehicle: suspension in saline) is 76 % of control; the T/C (dose: 1800.0 mg/kg/injection, schedule: Q04DX004 (sc), vehicle: suspension in saline) was 102 % of control.

On to `C[Si](C)(C)O/C=C1/CCOC1=O`, for which the T/C reads like this: (dose: 100.0 mg/kg/injection, schedule: Q04DX004 (sc), vehicle: suspension in saline) 98 % of control; (dose: 200.0 mg/kg/injection, schedule: Q04DX004 (sc), vehicle: suspension in saline) 93 % of control; (dose: 800.0 mg/kg/injection, schedule: Q04DX004 (sc), vehicle: suspension in saline) 107 % of control.

On to `O=S(=O)(N=N/C=C1\C=CC=CN1O)c1cccs1`, for which the T/C under setting [1] is 75 % of control.

In the case of `CN(C)CCN1C(=O)c2cccc3cc([N+](=O)[O-])cc(c23)C1=O`, the T/C (dose: 18.0 mg/kg/injection, schedule: Q04DX004 (sc), vehicle: saline with Tween-80) is 95 % of control.

Turning to `NC(=S)N/N=C/c1ccc(OC(=O)COc2ccccc2)cn1`, the T/C by setting is: under setting [1], 102 % of control; under setting [2], 94 % of control; (dose: 600.0 mg/kg/injection, schedule: Q04DX004 (sc), vehicle: saline with Tween-80) 155 % of control; (dose: 1200.0 mg/kg/injection, schedule: Q04DX004 (sc), vehicle: saline with Tween-80) 38 % of control.

For `Nc1ccn(C2OC(CO)C(O)C2O)c(=O)n1` (stereo not given), the T/C reads like this: (dose: 15.63 mg/kg/injection, schedule: Q01DX010 (sc), vehicle: water) 100 % of control; (dose: 31.25 mg/kg/injection, schedule: Q01DX010 (sc), vehicle: water) 102 % of control; (dose: 500.0 mg/kg/injection, schedule: Q04DX004 (sc), vehicle: saline) 62 % of control; (dose: 600.0 mg/kg/injection, schedule: Q04DX004 (sc), vehicle: saline) 77 % of control; (dose: 1000.0 mg/kg/injection, schedule: Q04DX004 (sc), vehicle: saline) 19 % of control.

As to `CCCCCCCCCCCCCC#CC(=O)O`, the T/C is 117 % of control (dose: 37.5 mg/kg/injection, schedule: Q04DX004 (sc), vehicle: saline with Tween-80) and 104 % of control under setting [2].

On to `COc1cccc2c1C(=N)c1c(O)c3c(c(O)c1C2=O)C[C@@](O)(C(C)=O)C[C@@H]3OC1CC(N)C(O)C(C)O1` (stereo not given in full), for which the T/C (dose: 10.0 mg/kg/injection, schedule: Q04DX004 (sc), vehicle: water) was 102 % of control and the T/C under setting [3] is 53 % of control.

Consider `Clc1ccc(C2SC=Cc3ccccc32)cc1` (stereo not given), for which the T/C (dose: 600.0 mg/kg/injection, schedule: Q04DX004 (sc), vehicle: Klucel (hydroxypropylcellulose) (HPC)) is 48 % of control.

`O=C(NO)c1cc(O)c(O)c(O)c1`: the T/C is, setting by setting: (dose: 200.0 mg/kg/injection, schedule: Q04DX004 (sc), vehicle: water) 83 % of control; (dose: 400.0 mg/kg/injection, schedule: Q04DX004 (sc), vehicle: water) 60 % of control; (dose: 800.0 mg/kg/injection, schedule: Q04DX004 (sc), vehicle: water) 56 % of control; (dose: 1600.0 mg/kg/injection, schedule: Q04DX004 (sc), vehicle: water) 71 % of control.

For `CCOC(=O)C(N)C[S][Sn]([CH3])([CH3])[Cl]` (stereo not given), the T/C was 169 % of control (dose: 18.75 mg/kg/injection, schedule: Q04DX004 (sc), vehicle: saline) and 72 % of control (dose: 75.0 mg/kg/injection, schedule: Q04DX004 (sc), vehicle: saline).

Consider `COc1cccc2c1C(=O)c1c(O)c3c(c(O)c1C2=O)C[C@@](O)(/C(CO)=N/NC(=O)c1ccc(Cl)c(Cl)c1)C[C@@H]3OC1CC(N)C(O)C(C)O1` (stereo not given in full), for which the T/C was 226 % of control (dose: 4.0 mg/kg/injection, schedule: Q01DX010 (sc), vehicle: water); 88 % of control (dose: 8.0 mg/kg/injection, schedule: Q01DX010 (sc), vehicle: water); 113 % of control (dose: 20.0 mg/kg/injection, schedule: Q04DX004 (sc), vehicle: water); 59 % of control under setting [3].

Values taken from PubChem BioAssay AID206 (DTP/NCI, 2004).
